Test results as given in paper PMC11819963, “In Vitro CO-Releasing and Antioxidant Properties of Sulfonamide-Based CAI-CORMs in a H2O2-Stimulated Human Achilles Tendon-Derived Cell Model” (Molecules, 2025).

Tests used:
[1] = tested on: Human Achilles tendon-derived tenocytes; test: cell metabolic activity (MTT test), basal conditions; format: cell-based; conditions: 6.25–50 µM; for cell metabolic activity (MTT): vs untreated control
Procedure: (§1) Human Achilles tendon-derived tenocytes (#TEN-F) were purchased by ZenBio Inc. (Durham, NC, USA) and maintained in complete alpha-MEM (EuroClone, Milan, Italy) supplemented with 10% of heat-inactivated FBS (Gibco, Thermo Fisher Scientific, Waltham, MA, USA) and 1% penicillin/streptomycin (EuroClone, Milan, Italy) at 37 °C and 5% CO2 and used from passage 3 up to passage 6.
(§2) Cells were seeded in 96-well plates (0.5 × 10^4/well) or 6-well plates (0.5 × 10^5/well) (ThermoFisher Scientific, Waltham, MA, USA) and left to adhere overnight at 37 °C and 5% CO2. For cell metabolic activity experiments (MTT test), tenocytes were treated with increasing concentrations of compounds (range 0–50 µM) for 24 and 48 h. Compounds were dissolved in DMSO to obtain a 200 mM stock solution, and they were afterwards diluted in complete alpha-MEM (DMSO final concentration = 0.1%) for further analyses. In a second set of MTT experiments, tenocytes were pre-incubated with 100 µM H2O2 for 3 h. After that, the pre-incubation medium was discarded and replaced with a fresh one containing the proper compound at increasing concentrations for 24 and 48 h. At the established time points, samples were processed for further analyses.
(§3) Tenocytes were seeded in 96 well tissue culture-treated plates (Falcon®, Corning Incorporated, Brooklyn, NY, USA) at 0.5 × 10^4 cells/well. Untreated cells (0 µM) were set as control (100% of cell metabolic activity). At the established time points, the exposure media were replaced by fresh medium containing 3-(4,5-dimethylthiazol-2-yl)-2,5-diphenyltetrazolium bromide (MTT) 0.5 mg/mL (Merck, Darmstadt, Germany) and processed as elsewhere reported [18]. The optical density in each well was measured using a spectrophotometer (Thermo Fisher Scientific, Waltham, MA, USA) at a wavelength of 540 nm. Each experiment was performed three times in triplicates per experimental condition (n = 9).

[2] = tested on: reduced myoglobin (deoxy-Mb); test: myoglobin carbonylation assay (CO release); set-up: species or system horse; conditions: for MbCO formed: after 210 min of incubation, 1:1 CORM–Mb ratio (about 20 μM CORM); for CO-release profile (MbCO formed over time): 1:1 and 1:6 CORM:Mb, up to 300 min, comparison within series
Procedure: To determine the CO-releasing properties of the designed compounds, the myoglobin carbonylation assay was employed, with some deviations from the standard protocol, as previously reported. The analysed compounds were incubated with reduced myoglobin (deoxy-Mb), and spectra were recorded every 30 min up to 300 min. The release of CO was assessed by evaluating the formation of carbonylated myoglobin (Mb-CO) over time (Figure 3). […] The releasing properties of the compounds were also expressed as CO units released after 300 min of incubation with Mb, as reported in Figure S1 (Supplementary Information File).
All the employed reagents were of analytical grade and acquired from Merck (Milan, Italy). Gaseous CO was obtained from Rivoira (Milan, Italy). A Shimadzu UV1900 UV-Vis Spectrophotometer from 275 to 700 nm at the scanning rate of 200 nm/min was used to record UV-Vis absorption spectra in a disposable plastic cuvette (path length 0.44 cm). The second derivative spectra were generated with the Origin Lab software, and the Savitzky–Golay method was applied using 25 data points for the differentiation process. Neither an increase nor a decrease in the number of points caused changes in the wavelength or in the bandwidth. Lyophilised horse heart Mb was dissolved in phosphate-buffered saline flushed with N2 (PBS, 0.01 M, pH 7.4 to a 20–22 μM final concentration). Two millilitres of this freshly prepared stock solution were placed in a cuvette to record the UV-Vis absorption spectrum of met-Mb. Next, the solutions were divided into two halves: 10 μL of sodium dithionite (30 mg/mL) was added to the first half (reference), and the UV–Vis spectrum of deoxy-Mb was registered. After that, the solution was flushed with CO gas, and the Mb-CO spectrum was acquired. Sodium dithionite was added to the second half (sample), and a spectrum was recorded. Afterwards, a CORM DMSO solution was added to a final CORM concentration of 1.67 μM, 3.33 μM or 20 μM and gently mixed. The solution was covered with 300 μL of light mineral oil to avoid CO escaping and oxygenation of Mb, and the absorption spectrum was recorded at t = 0. Spectra were acquired every 30 min for 300 min, keeping the sample at 37 °C. When necessary, a freshly prepared sodium dithionite solution was added. After 300 min, the total Mb concentration at the end of the assay was determined by flushing the sample with CO gas. Mb-CO concentration at each time point was determined, as previously reported. Each experiment was replicated three times, and the data were expressed as mean ± SEM.

[3] = tested on: H2O2-stimulated human Achilles tendon-derived tenocytes; test: cell metabolic activity (MTT test), pre-incubation with H2O2; format: cell-based; conditions: 6.25–50 µM, after H2O2 100 µM for 3 h
Procedure: as §1, §2, §3

Structure (SMILES) | cytotoxicity (MTT) ([1]; 48 h exposure) | cell metabolic activity (MTT) ([1]; 48 h exposure) | MbCO formed [2] | cell metabolic activity (MTT) ([3]; 24 h exposure) | cell metabolic activity (MTT) ([3]; 48 h exposure) | further results
CCC#CCN(CC#CCC)c1ccc(S(N)(=O)=O)cc1.[C-]#[O+].[C-]#[O+].[C-]#[O+].[C-]#[O+].[C-]#[O+].[C-]#[O+].[Co].[Co] [3c, 4-(Di(pent-2-yn-1-yl)amino)benzenesulfonamide hexacarbonyldicobalt] | cytotoxic, already at the lowest concentration | – | – | – | – | –
C#CCOc1ccc(S(N)(=O)=O)cc1 [B, 4-(prop-2′-ynyloxy)benzenesulfonamide, reference compound] | – | still ineffective | – | – | – | –
C#CCOc1ccccc1.[C-]#[O+].[C-]#[O+].[C-]#[O+].[C-]#[O+].[C-]#[O+].[C-]#[O+].[Co].[Co] [CO-B, (Prop-2-yn-1-yloxy)benzene hexacarbonyldicobalt, reference compound] | – | extremely active in terms of cell metabolic activity increase | 4 µM | capable of increasing cell metabolic activity | can increase cell metabolic activity over the concentration range | –
C#CCNc1ccccc1.[C-]#[O+].[C-]#[O+].[C-]#[O+].[C-]#[O+].[C-]#[O+].[C-]#[O+].[Co].[Co] [CO-A, N-(prop-2-yn-1-yl)aniline hexacarbonyldicobalt, reference compound] | – | extremely active in terms of cell metabolic activity increase | 8.1 µM | capable of increasing cell metabolic activity | increase cell metabolic activity only at 50 µM | –
CC#CCN(CC#CC)c1ccc(S(N)(=O)=O)cc1.[C-]#[O+].[C-]#[O+].[C-]#[O+].[C-]#[O+].[C-]#[O+].[C-]#[O+].[Co].[Co] [2c, 4-(Di(but-2-yn-1-yl)amino)benzenesulfonamide hexacarbonyldicobalt] | – | constantly effective on cell metabolic activity over the concentrations | – | best test compounds able to increase cell metabolic activity | the best compound in terms of cell metabolic activity increase | cell metabolic activity (MTT) ([1]; 24 h exposure): significantly increase cell metabolic activity
C#CCN(CC#C)c1ccccc1.[C-]#[O+].[C-]#[O+].[C-]#[O+].[C-]#[O+].[C-]#[O+].[C-]#[O+].[Co].[Co] [CO-C, N,N-di(prop-2-yn-1-yl)aniline hexacarbonyldicobalt, reference compound] | – | extremely active in terms of cell metabolic activity increase | 3.72 µM | capable of increasing cell metabolic activity | increase cell metabolic activity only at 50 µM | –
CC#CCNc1ccc(S(N)(=O)=O)cc1.[C-]#[O+].[C-]#[O+].[C-]#[O+].[C-]#[O+].[C-]#[O+].[C-]#[O+].[Co].[Co] [2a, 4-(but-2-yn-1-ylamino)benzenesulfonamide hexacarbonyldicobalt] | biocompatible | increases tenocyte metabolic activity to a lesser extent than 1a | – | best test compounds able to increase cell metabolic activity | – | CO-release profile (MbCO formed over time) [2]: superimposable profile of MbCO formed over time; cell metabolic activity (MTT) ([1]; 24 h exposure): significantly increase cell metabolic activity
CCC#CCNc1ccc(S(N)(=O)=O)cc1.[C-]#[O+].[C-]#[O+].[C-]#[O+].[C-]#[O+].[C-]#[O+].[C-]#[O+].[Co].[Co] [3a, 4-(pent-2-yn-1-ylamino)benzenesulfonamide hexacarbonyldicobalt] | – | – | – | – | – | CO-release profile (MbCO formed over time) [2]: superimposable profile of MbCO formed over time; cytotoxicity (MTT) ([1]; 24 h exposure): reveal cytotoxicity; cytotoxicity (MTT) ([3]; 24 h exposure): cytotoxic at the highest concentrations used
CCC#CCOc1ccc(S(N)(=O)=O)cc1.[C-]#[O+].[C-]#[O+].[C-]#[O+].[C-]#[O+].[C-]#[O+].[C-]#[O+].[Co].[Co] [3b, 4-(Pent-2-yn-1-yloxy)benzenesulfonamide hexacarbonyldicobalt] | cytotoxic, already at the lowest concentration | – | – | – | – | –
